We go through 15 compounds from patent EP0391644B1, “Aryl-substituted rhodanine derivatives” (ELI LILLY AND COMPANY, priority 1989, dated 1990).

For the first experiment, the system named is adjuvant-induced arthritis. The experiment is described as follows: Developing Adjuvant-Induced Arthritis Test in Rats. The settings on record: 50 mg/kg P.O. x 29; AUC of uninjected paw volumes, Days 16 through 30. The class given is in vivo, male Lewis-Wistar rats.
As to “5-{[3,5-bis(1,1-dimethylethyl)-4-hydroxyphenyl]methylene}-3-[2-(4-morpholinyl)ethyl]amino-4-thiazolidinone [Example 49]”, the “% Inhibition of Uninjected Paw Volume Inflammation” value is 36%.

Staying with this experiment, now noted: Rattus norvegicus, po, 720 h; 25 mg/kg P.O. x 29; AUC of uninjected paw volumes, Days 16 through 30; read-out: % Inhibition of Uninjected Paw Volume Inflammation.
`CCNN1CSC(=Cc2cc(C(C)(C)C)c(O)c(C(C)(C)C)c2)C1=O` [Example 52, 5-{[3,5-bis(1,1-dimethylethyl)-4-hydroxyphenyl]methylene}-3-(ethylamino)-4-thiazolidinone]: the inhibition in vivo at 25 mg/kg amounted to 45%.

Staying with this experiment, now noted: Rattus norvegicus, po, 720 h; 50 mg/kg P.O. x 29; AUC of uninjected paw volumes, Days 16 through 30; read-out: % Inhibition of Uninjected Paw Volume Inflammation.
Take `CC(C)(C)c1cc(C=C2SCN(CCN)C2=O)cc(C(C)(C)C)c1O` [Example 27, 5-{[3,5-bis(1,1-dimethylethyl)-4-hydroxyphenyl]methylene}-3-(2-aminoethyl)-4-thiazolidinone]: the inhibition in vivo at 50 mg/kg was 40%.

On to `CC(C)(C)c1cc(C=C2SCN(Cc3nnn[nH]3)C2=O)cc(C(C)(C)C)c1O` [Example 39, 5-{[3,5-bis(1,1-dimethylethyl)-4-hydroxyphenyl]methylene}-3-(1H-tetrazol-5-ylmethyl)-4-thiazolidinone], for which the inhibition in vivo at 50 mg/kg stood at 2%.

`CC(=C1SCN(C)C1=O)c1cc(C(C)(C)C)c(O)c(C(C)(C)C)c1` [Example 25, 5-{[3,5-bis(1,1-dimethylethyl)-4-hydroxyphenyl]methylmethylene}-3-methyl-4-thiazolidinone]: the inhibition in vivo at 50 mg/kg stood at 8.5%.

For `Cc1cc(C=C2SCNC2=O)cc(C(C)(C)C)c1O` [Example 58, 5-{[3-(1,1-dimethylethyl)-4-hydroxy-5-methylphenyl]methylene}-4-thiazolidinone], the inhibition in vivo at 50 mg/kg was 16.9%.

Turning to `CCCc1cc(C=C2SCN(C)C2=O)cc(CCC)c1O` [Example 56, 5-[(4-hydroxy-3,5-dipropylphenyl)methylene]-3-methyl-4-thiazolidinone], the inhibition in vivo at 50 mg/kg is 38.2%.

Take `CC(C)(C)c1cc(C=C2SCN(CCNCCO)C2=O)cc(C(C)(C)C)c1O` [Example 30, 5-{[3,5-bis(1,1-dimethylethyl)-4-hydroxyphenyl]methylene}-3-[2-(2-hydroxyethylamino)ethyl]-4-thiazolidinone]: the inhibition in vivo at 50 mg/kg was 44.1%.

With `CC(=O)OCCCc1cc(C=C2SCN(C)C2=O)cc(CCCOC(C)=O)c1O` [Example 63, 5-{[3,5-bis[3-(acetyloxy)propyl]-4-hydroxyphenyl]methylene}-3-methyl-4-thiazolidinone], the inhibition in vivo at 50 mg/kg was found to be 9.8%.

`Cc1cc(C=C2SCN(N)C2=O)cc(C(C)(C)C)c1O` [Example 59, 3-amino-5-{[3-(1,1-dimethylethyl)-4-hydroxy-5-methylphenyl]methylene}-4-thiazolidinone]: the inhibition in vivo at 50 mg/kg amounted to 19.8%.

In the case of `CN1CSC(=Cc2ccc(O)c(C(C)(C)C)c2)C1=O` [Example 66, 5-{[3-(1,1-dimethylethyl)-4-hydroxyphenyl]-methylene}-3-methyl-4-thiazolidinone], the inhibition in vivo at 50 mg/kg was found to be 26.1%.

As to `CC(C)(C)c1cc(C=C2SCN(N)C2=O)cc(C(C)(C)C)c1O` [Example 50, 3-amino-5-{[3,5-bis(1,1-dimethylethyl)-4-hydroxyphenyl]methylene}-4-thiazolidinone], the inhibition in vivo at 50 mg/kg was determined as 62%.

Turning to `CC(C)(C)c1cc(C=C2SCN(N3CCCCC3)C2=O)cc(C(C)(C)C)c1O` [Example 44, 5-{[3,5-bis(1,1-dimethylethyl)-4-hydroxyphenyl]methylene}-3-(1-piperidinyl)-4-thiazolidinone], the inhibition in vivo at 50 mg/kg is 15%.

For `CNCCCN1CSC(=Cc2cc(C(C)(C)C)c(O)c(C(C)(C)C)c2)C1=O` [Example 34, 5-{[3,5-bis(1,1-dimethylethyl)-4-hydroxyphenyl]methylene}-3-[3-(methylamino)propyl]-4-thiazolidinone], the inhibition in vivo at 50 mg/kg was determined as 1.6%.

Take `CN(C)CCN1CSC(=Cc2cc(C(C)(C)C)c(O)c(C(C)(C)C)c2)C1=O` [Example 29, 5-{[3,5-bis(1,1-dimethylethyl)-4-hydroxyphenyl]methylene}-3-[2-(dimethylamino)ethyl]-4-thiazolidinone]: the inhibition in vivo at 50 mg/kg was found to be 49%.
